The values below come from patent publication US9381381B2, “Treatment of nail infections with no” (Aberdeen University, priority 2001, dated 2016).

In one data set the test system is A. niger. In words: Franz cell nail bioassay for anti-fungal gas penetration across a human nail. The class given is cell-based, Aspergillus niger. Conditions: 4 applications every 2 h 10 min, read after 24 hours; agar 8 mm below nail. As to the method: After the agar had cooled and set, 25 μl of an A. niger spore suspension was pipetted onto the surface of the agar and a section of human nail fitted in an air-tight manner above the outlet hole, and clamped in place. The cells were then incubated at 32° C. for 24 h to obtain a carpet of mycelium.
The top of the funnel for all of the Franz cells was then covered with Parafilm. The cells were left at room temperature. After a period of 2 h 10 min, the solutions in each Franz cell were removed and replaced with an equivalent solution and the process repeated every 2 h and 10 min for a further […] applications, giving a total of 4 applications. After the final application of solution, the cells were left covered at room temperature, to allow slow growth of the organism for 24 h.

The test system of another data set is onychomycosis. Conditions: cited from earlier work; for Safety concerns: in vivo, po.

Molecules are shown by their SMILES.

Consider `O=C(O)CC(O)(CC(=O)O)C(=O)O` [citric acid], for which, in the data set on A. niger, the “Growth of A. niger mycelium under human nail” value was “full carpet of growth of mycelium”.
On to `CCC(C)n1ncn(-c2ccc(N3CCN(c4ccc(OCC5COC(Cn6cncn6)(c6ccc(Cl)cc6Cl)O5)cc4)CC3)cc2)c1=O` (centres unmarked) [itraconazole], for which the Safety concerns result in the data set on onychomycosis was “liver toxicity, severe skin reactions and drug interactions”.
Turning to `O=NO` [sodium nitrite], the “Growth of A. niger mycelium under human nail” value in the data set with A. niger was “full carpet of growth of mycelium”.
On to `CN(C/C=C/C#CC(C)(C)C)Cc1cccc2ccccc12` [terbinafine], for which the Safety concerns result in the data set on onychomycosis was “liver toxicity, severe skin reactions and drug interactions”. Moreover, the Cure rates with onychomycosis (oral treatment) is recorded as approximately 70%.
